Data published in patent publication US10975068B2, “6-aminopyridin-3-yl thiazoles as modulators of RORγT” (Janssen Pharmaceutica NV, priority 2016, dated 2021).

What follows are compounds tested against human RORγt ligand binding domain (RORγt LBD) (Homo sapiens (Human), UniProt P51449) (assay: RORγt ThermoFluor® assay (thermal shift binding)). Settings: read-out: ThermoFluor® Assay, Kd.
Summary of the method: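 Binding was inferred from thermal stabilisation (ΔTm) of the E. coli-expressed RORγt LBD (0.065 mg/mL), monitored by 1,8-ANS (60 μM) emission at 500 nm during a 1 °C/min ramp. Buffer was Hepes 100 mM pH 7.0 with NaCl, GSH and Tween-20.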

human RORγt ligand binding domain (RORγt LBD), sequence (P51449 other isoform, or with tags, fused parts or gaps): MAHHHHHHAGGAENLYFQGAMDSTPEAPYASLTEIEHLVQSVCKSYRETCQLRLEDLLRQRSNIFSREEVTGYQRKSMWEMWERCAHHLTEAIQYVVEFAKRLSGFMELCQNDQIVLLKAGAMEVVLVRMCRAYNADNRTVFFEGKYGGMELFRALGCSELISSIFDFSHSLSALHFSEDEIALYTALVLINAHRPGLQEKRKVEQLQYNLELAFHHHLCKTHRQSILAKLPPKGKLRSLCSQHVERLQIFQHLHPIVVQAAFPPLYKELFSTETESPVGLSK

| Structure (SMILES) | Kd |
| --- | --- |
| CC(C)(O)CNC(=O)c1nc(C(=O)N2C3CCC2CC3)c(-c2cnc(NC3(C)CCC3)cc2C(F)F)s1 [Example 169, 4-((1s,4s)-7-Azabicyclo[2.2[1]heptane-7-carbonyl)-5-(4-(difluoromethyl)-6-((1-methylcyclobutyl)amino)pyridine-3-yl)-N-(2-hydroxy-2-methylpropyl))thiazole-2-carboxamide] | 2.7 nM |
| C[C@H]1CCCCN1C(=O)c1nc(C(=O)NCC(C)(C)O)sc1-c1cnc(NC2CCCC2)cc1C(F)(F)F [Example 27, (S)-5-(6-(Cyclopentylamino)-4-(trifluoromethyl)pyridin-3-yl)-N-(2-hydroxy-2-methylpropyl)-4-(2-methylpiperidine-1-carbonyl)thiazole-2-carboxamide] | 0.52 nM |
| C[C@H]1CCCCN1C(=O)c1nc(C(=O)NCC(C)(C)O)sc1-c1cnc(NCC(C)(C)C)cc1C(F)(F)F [Example 86, (S)—N-(2-Hydroxy-2-methylpropyl)-4-(2-methylpiperidine-1-carbonyl)-5-(6-(neopentylamino)-4-(trifluoromethyl)pyridin-3-yl)thiazole-2-carboxamide] | 0.17 nM |
| C[C@H]1CCCN1C(=O)c1nc(C(=O)NCC(C)(C)O)sc1-c1cnc(NC2CCCC2)cc1C(F)(F)F [Example 38, (S)-5-(6-(Cyclopentylamino)-4-(trifluoromethyl)pyridin-3-yl)-N-(2-hydroxy-2-methylpropyl)-4-(2-methylpyrrolidine-1-carbonyl)thiazole-2-carboxamide] | 1.8 nM |
| C[C@H](Nc1cc(C(F)(F)F)c(-c2sc(C(=O)NCC(C)(C)O)nc2C(=O)N2C3CCC2CC3)cn1)C1CC1 [Example 51, 4-((1s,4s)-7-Azabicyclo[2.2.1]heptane-7-carbonyl)-5-(6-(((S)-1-cyclopropylethyl)amino)-4-(trifluoromethyl)pyridin-3-yl)-N-(2-hydroxy-2-methylpropyl)thiazole-2-carboxamide] | 3.2 nM |
| C[C@H]1CCCN1C(=O)c1nc(C(=O)NC[C@@H](O)C(C)(C)O)sc1-c1cnc(NC(C)(C)C)cc1C(F)(F)F (single isomer, unassigned) [Example 243, 5-(6-(tert-Butylamino)-4-(trifluoromethyl)pyridin-3-yl)-N—((R*)-2,3-dihydroxy-3-methylbutyl)-4-((S)-2-methylpyrrolidine-1-carbonyl)thiazole-2-carboxamide] | 7.3 nM |
| C[C@H]1CCCN1C(=O)c1nc(C(=O)NCc2n[nH]c(=O)o2)sc1-c1cnc(NC(C)(C)C)cc1C(F)(F)F [Example 305, (S)-5-(6-(tert-Butylamino)-4-(trifluoromethyl)pyridin-3-yl)-4-(2-methylpyrrolidine-1-carbonyl)-N-((5-oxo-4,5-dihydro-1,3,4-oxadiazol-2-yl)methyl)thiazole-2-carboxamide] | 4.9 nM |
| C[C@H]1CCCN1C(=O)c1nc(C(=O)NCC(C)(C)O)sc1-c1cnc(NCC(C)(C)C)cc1C(F)(F)F [Example 87, (S)—N-(2-Hydroxy-2-methylpropyl)-4-(2-methylpyrrolidine-1-carbonyl)-5-(6-(neopentylamino)-4-(trifluoromethyl)pyridin-3-yl)thiazole-2-carboxamide] | 1.3 nM |
| C[C@H](NC(=O)c1nc(C(=O)N2CCC[C@@H]2C)c(-c2cnc(NC(C)(C)C)cc2C(F)(F)F)s1)C(C)(C)O [Example 336, 5-[6-(tert-Butylamino)-4-(trifluoromethyl)-3-pyridyl]-N-[(1S)-2-hydroxy-1,2-dimethyl-propyl]-4-[(2S)-2-methylpyrrolidine-1-carbonyl]thiazole-2-carboxamide] | 1.1 nM |
| CC(C)(O)CNC(=O)c1nc(C(=O)N2C3CCC2CC3)c(-c2cnc(NC3(C)CCC3)cc2C(F)(F)F)s1 [Example 140, 4-((1s,4s)-7-Azabicyclo[2.2.1]heptane-7-carbonyl)-N-(2-hydroxy-2-methylpropyl)-5-(6-((1-methylcyclobutyl)amino)-4-(trifluoromethyl)pyridin-3-yl)thiazole-2-carboxamide] | 1.7 nM |
| CC(C)(O)CNC(=O)c1nc(C(=O)N2C3CCC2CC3)c(-c2cnc(NCC(C)(C)C(F)(F)F)cc2C(F)(F)F)s1 [Example 122, 4-((1s,4s)-7-Azabicyclo[2.2.1]heptane-7-carbonyl)-N-(2-hydroxy-2-methylpropyl)-5-(6-((3,3,3-trifluoro-2,2-dimethylpropyl)amino)-4-(trifluoromethyl)pyridin-3-yl)thiazole-2-carboxamide] | 1.7 nM |
| CC(C)(C)CNc1cc(C(F)F)c(-c2sc(C(=O)NCC(C)(C)O)nc2C(=O)N2C3CCC2CC3)cn1 [Example 116, 4-((1s,4s)-7-Azabicyclo[2.2.1]heptane-7-carbonyl)-5-(4-(difluoromethyl)-6-(neopentylamino)pyridin-3-yl)-N-(2-hydroxy-2-methylpropyl)thiazole-2-carboxamide] | 3.6 nM |

The remaining lines, values ahead:

| Kd | Structure (SMILES) |
| --- | --- |
| 2.8 nM | C[C@H](Nc1cc(C(F)(F)F)c(-c2sc(C(=O)NCC(C)(C)O)nc2C(=O)N2CCC[C@@H]2C)cn1)C1CC1 [Example 40, 5-(6-(((S)-1-Cyclopropylethyl)amino)-4-(trifluoromethyl)pyridin-3-yl)-N-(2-hydroxy-2-methylpropyl)-4-((S)-2-methylpyrrolidine-1-carbonyl)thiazole-2-carboxamide] |
| 0.74 nM | C[C@H]1CCCCN1C(=O)c1nc(C(=O)NCC(C)(C)O)sc1-c1cnc(NC2CCCC2)cc1C(F)F [Example 41, (S)-5-(6-(Cyclopentylamino)-4-(difluoromethyl)pyridin-3-yl)-N-(2-hydroxy-2-methylpropyl)-4-(2-methylpiperidine-1-carbonyl)thiazole-2-carboxamide] |
| 1.4 nM | C[C@H](Nc1cc(C(F)(F)F)c(-c2sc(C(=O)NCC(C)(C)O)nc2C(=O)N2CC(F)(F)C[C@@H]2C)cn1)C1CC1 [Example 142, 5-(6-(((S)-1-Cyclopropylethyl)amino)-4-(trifluormethyl)pyridin-3-yl)-4-((S)-4,4-difluoro-2-methylpyrrolidine-1-carbonyl)-N-(2-hydroxy-2-methylpropyl)thiazole-2-carboxamide] |
| 1.5 nM | C[C@H](Nc1cc(C(F)F)c(-c2sc(C(=O)NCC(C)(C)O)nc2C(=O)N2CCCC[C@@H]2C)cn1)C(F)(F)F [Example 144] |
| 0.68 nM | C[C@H]1CC(F)(F)CN1C(=O)c1nc(C(=O)NCC(C)(C)O)sc1-c1cnc(NC2(C)CCC2)cc1C(F)(F)F [Example 141, (S)-4-(4,4-Difluoro-2-methylpyrrolidine-1-carbonyl)-N-(2-hydroxy-2-methylpropyl)-5-(6-((1-methylcyclobutyl)amino)-4-(trifluoromethyl)pyridin-3-yl)thiazole-2-carboxamide] |
| 2.6 nM | CC[C@H](Nc1cc(C(F)(F)F)c(-c2sc(C(=O)NCC(C)(C)O)nc2C(=O)N2CCC[C@@H]2C)cn1)C1CC1 (relative stereo) [Example 128, 5-(6-(((S*)-1-Cyclopropylpropyl)amino)-4-(trifluoromethyl)pyridin-3-yl)-N-(2-hydroxy-2-methylpropyl)-4-((S)-2-methylpyrrolidine-1-carbonyl)thiazole-2-carboxamide] |
| 0.52 nM | C[C@H]1CC(F)(F)CN1C(=O)c1nc(C(=O)NCC(C)(C)O)sc1-c1cnc(NC2(C(F)(F)F)CCC2)cc1C(F)F [Example 124, (S)-4-(4,4-Difluoro-2-methylpyrrolidine-1-carbonyl)-5-(4-(difluoromethyl)-6-((1-(trifluoromethyl)cyclobutyl)amino)pyridin-3-yl)-N-(2-hydroxy-2-methylpropyl)thiazole-2-carboxamide] |
| 0.5 nM | C[C@H](Nc1cc(C(F)(F)F)c(-c2sc(C(=O)NCC(C)(C)O)nc2C(=O)N2CCCC[C@@H]2C)cn1)C(F)(F)F [Example 47, N-(2-Hydroxy-2-methylpropyl)-4-((S)-2-methylpiperidine-1-carbonyl)-5-(4-(trifluoromethyl)-6-(((S)-1,1,1-trifluoropropan-2-yl)amino)pyridin-3-yl)thiazole-2-carboxamide] |
| 1.9 nM | C[C@H]1CC(F)(F)CN1C(=O)c1nc(C(=O)NCC(C)(C)O)sc1-c1cnc(NCC(C)(C)C)cc1C(F)F [Example 115, (S)-4-(4,4-Difluoro-2-methylpyrrolidine-1-carbonyl)-5-(4-(difluoromethyl)-6-(neopentylamino)pyridin-3-yl)-N-(2-hydroxy-2-methylpropyl)thiazole-2-carboxamide] |
| 3.2 nM | C[C@H](Nc1cc(C(F)(F)F)c(-c2sc(C(=O)NCC(C)(C)O)nc2C(=O)N2CCC[C@@H]2C)cn1)C(F)(F)F [Example 78, N-(2-Hydroxy-2-methylpropyl)-4-((S)-2-methylpyrrolidine-1-carbonyl)-5-(4-(trifluoromethyl)-6-(((S)-1,1,1-trifluoropropan-2-yl)amino)pyridin-3-yl)thiazole-2-carboxamide] |
| 0.65 nM | C[C@H](Nc1cc(C(F)F)c(-c2sc(C(=O)NCC(C)(C)O)nc2C(=O)N2CCCC[C@@H]2C)cn1)C1CC1 [Example 37, 5-(6-(((S)-1-Cyclopropylethyl)amino)-4-(difluoromethyl)pyridin-3-yl)-N-(2-hydroxy-2-methylpropyl)-4-((S)-2-methylpiperidine-1-carbonyl)thiazole-2-carboxamide] |
| 5.4 nM | C[C@H](NC(=O)c1nc(C(=O)N2CCC[C@@H]2C)c(-c2cnc(N[C@@H](C)C(F)(F)F)cc2C(F)F)s1)C(C)(C)O [Example 199, 5-(4-(Difluoromethyl)-6-(((S)-1,1,1-trifluoropropan-2-yl)amino)pyridine-3-yl)-N—((S)-3-hydroxy-3-methylburan-2-yl)-4-((S)-2-methylpyrrolidine-1-carbonyl)thiazole-2-carboxamide] |
| 1.4 nM | CC[C@H](Nc1cc(C(F)F)c(-c2sc(C(=O)NCC(C)(C)O)nc2C(=O)N2CC(F)(F)C[C@@H]2C)cn1)C(F)(F)F [Example 90, 4-((S)-4,4-Difluoro-2-methylpyrrolidine-1-carbonyl)-5-(4-(difluoromethyl)-6-(((S)-1,1,1-trifluorobutan-2-yl)amino)pyridin-3-yl)-N-(2-hydroxy-2-methylpropyl)thiazole-2-carboxamide] |
| 1.7 nM | C[C@H](NC(=O)c1nc(C(=O)N2CC(F)(F)C[C@@H]2C)c(-c2cnc(N[C@@H](C)C(F)(F)F)cc2C(F)F)s1)C(C)(C)O [Example 197] |
